Measured values: US10507199B2, “Molecules in the tryptophan-5-hydroxytryptophan-serotonin-NAS-melatonin/6-hydroxymelatonin sulfate-melatonin receptor 1A pathway in neurological diseases” (priority 2017, dated 2019)
“Also recorded” adds a separate entry of the source.

Assays:
[1] = test system: neonatal hypoxic-ischemic brain injury; conditions: melatonin 15 mg/kg; Carloni et al.; cited from earlier work
[2] = test system: neonatal H-I brain injury (P8 mice, unilateral carotid ligation and 60 min hypoxia); test: Neonatal hypoxia-ischemia mouse model, H&E staining and brain area loss; type: in vivo
Experimental: For histological analyses, after various time points after H-I brain injury, mice were anesthetized with IP injection of 100 mg/kg pentobarbital and then perfused through the left ventricle with PBS. […] The sections corresponding to image 205 up to caudal hippocampus region of Allen mouse brain atlas were directly mounted on SuperFrost Plus® microscope slides. H&E staining was performed on the brain at 7 days post H-I injury comprising of right unilateral carotid ligation and 60 min hypoxia. Brain sections of 50 μm thickness were stained with hematoxylin and eosin (all reagents from Fisher Scientific, Santa Clara, Calif.), dehydrated in graded ethanol solutions, cleared with xylene, examined under light microscope, and subsequently scanned with Epsom V500 photo scanner for measurements. The cross-sectional unaffected and affected areas of the hippocampus, and cortex were measured with NIH imageJ software. A total of 5 coronal slices through the same hippocampus regions were inspected for tissue loss for each animal. The total cross-sectional area in each brain region was calculated in all sections assessed, and the percentage of area loss in the lesioned hemisphere versus the unlesioned hemisphere was determined for each animal. The person performing the measurements was blinded to the study groups. Images of H & E stained sections were quantified using ImageJ software package to measure hemispheric area contralateral and ipsilateral to the H-I brain injury in order to calculate the amount of tissue lost on the ipsilateral hemisphere. The loss of brain tissue ipsilateral to the H-I injury was calculated as a percentage of the non-injured contralateral hemisphere.

[3] = test system: neonatal H-I brain injury (P8 mice, unilateral carotid ligation and 45 min hypoxia); test: Neonatal hypoxia-ischemia mouse model, Fluoro-Jade B staining and histological score; type: in vivo; conditions: melatonin 5 mg/kg IP once daily, 48 hr after H-I
Experimental: FJB staining was performed at 48 hr post H-I injury of UCL followed by 45 min hypoxia. Fluoro-Jade is an anionic fluorochrome capable of selectively staining degenerating neurons in brain slices. Coronal sections of 16 μm thickness were stained with FJB using the method adapted from Schmued and colleagues.^41 Briefly, tissues mounted on glass slides were sequentially placed in 100% ethanol for 3 min, 70% ethanol for 1 min and deionized water for 1 min. Sections were oxidized for 15 min using 0.06% KMnO4 solution followed by 3 brief rinses in PBS. Slides were then immersed in a 0.001% solution of Fluoro-Jade (Histochem, Jefferson, A R) in 0.1% acetic acid for 30 min, rinsed with PBS, dried for 20 min at 45° C., cleared with xylene and cover slips applied using DPX medium. FJB stained sections were examined under a microscope independently by 2 investigators blinded to the treatment group. […] The total scores for the hippocampus and cortex were compared in melatonin treated and vehicle group.

humans = conditions: cited from earlier work
[4] = test system: melatonin receptor 1A (MT1); conditions: melatonin 10 mg/kg, 30 min prior to H-I; 48 hr post H-I
Experimental: A model of hypoxia-ischemia in newborn mice pups based on modification of Rice-Vannucci model of unilateral carotid ligation (UCL) followed by hypoxia was used.^40 C57/BL6 wild type and MT1 knockout (KO) mice litters of postnatal day 8 (P8) pups were anesthetized with 2.5% isofluorane and balanced room air, and the right common carotid artery permanently ligated. Time to anesthesia and completion of surgery was timed with a stopwatch to limit the procedure to less than 3 min. Following recovery from anesthesia after 15 min, the pups were placed in hypoxia chamber through which 8% oxygen was delivered at 6 liters per min for 60 min for histology, western blot and immunostaining and 45 mins for FJB staining. Normothermia was maintained by placing the pups in an incubator at 34° C. throughout the experiment except during hypoxia when the temperature was increased to 36° C. to counteract the cooling effect of the 8% 02 gas flow. […]
The lysate was cleared by centrifugation at 19,720×g for 10 min at 4° C., and the supernatant was analyzed by Western blotting.^20 Following right unilateral carotid ligation (UCL), C57/BL6 P8 pups were subjected to 60 min of hypoxia. […] The resulting supernatants were analyzed by Western blotting.^20, 44 Protein concentration was measured by the Bradford method.

[5] = test system: mSOD1 G93A ALS transgenic mice; test: mSOD1 G93A ALS mice: disease onset (rotarod), survival, body weight; type: in vivo, mouse
Experimental: Motor strength and coordination were evaluated using a rotarod. Mice were evaluated at both 15 and 5 rpm rotarod speeds. […] Mortality was defined as the age at death or when the mouse was unable to right itself within 30 second. Body weight was monitored weekly.
To determine whether NAS could be used therapeutically in these subjects, NAS was administered at 15 mg/kg/day by daily IP injection initiated at 6 weeks of age. […] ALS disease onset was defined as failure to pass the rotarod task at 15 rpm. […] Thus NAS administration also prevents motor neuron loss in mSOD1 G93A ALS mice.

WT mice = test: Body weight of WT mice under NAS; type: in vivo, mouse; conditions: NAS 7.5, 15, 30, 45 mg/kg, daily IP injection started at 6 weeks
[6] = test system: motor neurons in lumbar spinal cord of mSOD1 G93A ALS mice; test: Nissl staining of motor neurons in lumbar spinal cord of mSOD1 G93A ALS mice; type: in vivo, mouse; conditions: NAS treatment vs saline vehicle
Experimental: Nissl staining was performed in mSOD1G93A ALS mice and wild type littermates. Serial lumbar spinal cords were sectioned at 18 μm. Continuous 10 sections per mouse were subjected to Nissl staining. Stained motor neurons were counted in the ventral horns of all sections.

cerebral ischemia = conditions: NAS administration; Zhou et al. 2014; cited from earlier work
[7] = melatonin 10 mg/kg IP once daily, first dose 30 min before H-I, 60 min hypoxia, 7 days after H-I, H&E
[8] = NAS 15 mg/kg/day, daily IP injection initiated at 6 weeks of age

In the case of `COc1ccc2[nH]cc(CCNC(C)=O)c2c1` [melatonin, N-acetyl-5-methoxytryptamine], the “reduction in brain damage” value [1] is listed as 64%, the “hippocampal tissue (area) loss in the brain ipsilateral to carotid ligation” value [2, 7] is listed as 28.6% and the “percentage brain tissue loss in the brain hemisphere ipsilateral to carotid ligation compared to the uninjured contralateral hemisphere” value [2, 7] is listed as 9.7%. The “reduction in hippocampus damage” value ([2]; melatonin 10 mg/kg, hippocampus) was 57%, the “reduction in brain damage” value ([2]; melatonin 10 mg/kg, whole hemisphere) was 60% and the “score of FJB positive cells in the cortex” value [3] was “significantly higher score (representing worse damage) in vehicle treated pups compared with melatonin treated pups”. The “score of FJB positive cells in the hippocampus” value [3] was “significantly higher score (representing worse damage) in vehicle treated pups compared with melatonin treated pups”, the “side effects in humans” value (humans; humans) was “minimal” and the “safety profile in human newborns” value (humans; oxidative stress conditions in human newborns: asphyxia, sepsis, respiratory distress syndrome) was “good safety profile with no significant complications”. The “MT1 expression in brains of H-I pups (western blot)” value [4] was “significantly ameliorated MT1 loss”.
For `CC(=O)NCCc1c[nH]c2ccc(O)cc12` [NAS, N-acetylserotonin], the “loss of body weight during pathogenesis in mSOD1 G93A mice” value ([5]; NAS 15 mg/kg, daily IP injection started at 6 weeks) was “prevents the loss of body weight”, the “ALS disease onset (failure to pass the rotarod task at 15 rpm)” value [5, 8] was “delayed disease onset; also recorded: delays ALS disease onset” and the survival / mortality [5, 8] was “extending survival”. For the same compound, the “body weight in WT mice” value (WT mice) was “no effect on body weight”, the “loss of motor neurons in lumbar spinal cord (Nissl staining)” value [6] was “ameliorate the loss of motor neurons” and the lesion size (cerebral ischemia) was “diminish lesion size”. For the same compound, the neurological score (cerebral ischemia) was “improve neurological score” and the neuronal cell death (cerebral ischemia) was “attenuate neuronal cell death”.
